Reference: US20150315188A1, “COMPOUNDS AND METHODS FOR TREATMENT OF HYPERTENSION” (MEDIVATION TECHNOLOGIES, INC., priority 2012, published 2015)

Key:
[1] = molecular target: T1, Human adrenergic α1B receptor (Homo sapiens, UniProt P35368); test: β-Arrestin GPCR functional assay, adrenergic α1B (Protocol B); type: cell-based; settings: for IC50: β-arrestin, antagonist vs nor-epinephrine EC80
T1 sequence (P35368 1-520): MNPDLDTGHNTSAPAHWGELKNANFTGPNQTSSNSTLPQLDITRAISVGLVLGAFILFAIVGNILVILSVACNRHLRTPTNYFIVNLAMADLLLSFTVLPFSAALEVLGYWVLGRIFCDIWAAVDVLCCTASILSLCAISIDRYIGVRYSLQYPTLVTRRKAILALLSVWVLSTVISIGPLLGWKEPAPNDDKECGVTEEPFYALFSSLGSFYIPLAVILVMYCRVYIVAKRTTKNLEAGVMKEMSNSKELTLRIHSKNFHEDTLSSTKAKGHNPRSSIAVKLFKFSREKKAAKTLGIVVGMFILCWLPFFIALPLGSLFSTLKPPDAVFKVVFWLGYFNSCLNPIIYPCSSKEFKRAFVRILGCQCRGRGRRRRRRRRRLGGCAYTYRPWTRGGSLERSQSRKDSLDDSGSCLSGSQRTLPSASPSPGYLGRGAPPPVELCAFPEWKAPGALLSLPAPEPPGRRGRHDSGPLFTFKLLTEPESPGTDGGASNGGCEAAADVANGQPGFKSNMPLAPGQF
Method: To evaluate the activity of compounds in β-Arrestin GPCR functional assays, recombinant CHO cell line (DiscoveRX), over expressed with human adrenergic α1B receptor were used. The experiment was done with a kit of DiscoveRX as per recommended protocol of the supplier. Cells were harvested from culture flask using cell dissociation solution (CDS) and plated at a density of 12,000 cells/well in CP reagent (supplied with the kit) in a half area 96-well white polystyrene plate. After 24 h incubation at 37° C., compounds at various concentrations in 1% (final) DMSO were charged to the cells for 30 min at 37° C. Active nor-epinephrine (-NE) at its EC80 concentrations (50 nM) were then added to the cells and incubated for another 90 min at 37° C. Detection mix was prepared by mixing Path Hunter cell assay buffer, Emerald II solution and Galactone star solution in a ratio of 19:5:1 and incubated with the cells for 60 min at RT in the dark. The reading was taken in Envision at luminescence mode. Biochemical assay results are presented as the percent Inhibition in Table B2a, or IC50 values in Table B2b.

[2] = molecular target: T2, Human adrenergic α2B receptor (Homo sapiens, UniProt P18089); test: Radioligand binding, adrenergic α2B (Protocol Group B); design: purchased Milipore (Millipore); settings: for Percentage inhibition of ligand binding, Adrenergic α2B (10 nM) / inhibition at 0.01 µM: 10 nM compound; for Percentage inhibition of ligand binding, Adrenergic α2B (10 nM) / inhibition at 0.03 µM / Ki / Percentage inhibition of ligand binding, Adrenergic α2B (30 nM) / Percentage inhibition of ligand binding, Adrenergic α2B (0.1 μM) / inhibition at 0.01 µM / inhibition at 0.1 µM: Protocol Group B; for Percentage inhibition of ligand binding, Adrenergic α2B (10 nM): 0.01 µM; for inhibition at 0.03 µM / Percentage inhibition of ligand binding, Adrenergic α2B (30 nM): 30 nM compound; for inhibition at 0.03 µM: read-out: Percentage inhibition of ligand binding, Adrenergic α2B (30 nM); for Ki: estimated Ki, read-out: Ki α2B; for Percentage inhibition of ligand binding, Adrenergic α2B (30 nM): 0.03 µM; for Percentage inhibition of ligand binding, Adrenergic α2B (0.1 μM) / inhibition at 0.1 µM: 0.1 μM compound; for inhibition at 0.01 µM: read-out: Percentage inhibition of ligand binding, Adrenergic α2B (10 nM); for inhibition at 0.1 µM: read-out: Percentage inhibition of ligand binding, Adrenergic α2B (0.1 μM)
T2 sequence (P18089 1-450): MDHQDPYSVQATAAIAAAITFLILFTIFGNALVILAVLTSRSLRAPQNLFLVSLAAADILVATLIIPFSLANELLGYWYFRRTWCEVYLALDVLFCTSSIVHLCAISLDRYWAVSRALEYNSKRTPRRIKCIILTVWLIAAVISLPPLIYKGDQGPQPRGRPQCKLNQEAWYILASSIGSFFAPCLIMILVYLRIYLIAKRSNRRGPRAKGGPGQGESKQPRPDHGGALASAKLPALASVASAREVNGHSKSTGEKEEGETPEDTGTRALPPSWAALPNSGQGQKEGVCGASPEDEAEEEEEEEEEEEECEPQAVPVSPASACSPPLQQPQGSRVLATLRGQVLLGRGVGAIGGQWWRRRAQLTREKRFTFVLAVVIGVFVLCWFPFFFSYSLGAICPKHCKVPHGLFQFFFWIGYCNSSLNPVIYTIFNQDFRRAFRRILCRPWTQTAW
Procedure, shortened: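 Compounds at various concentrations in 1% DMSO were tested on recombinant membranes in Tris-HCl pH 7.4 buffer containing MgCl2, CaCl2 and 0.2% BSA.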

[3] = molecular target: T3, Human adrenergic α2A receptor (Homo sapiens, UniProt P08913); test: Radioligand binding, adrenergic α2A (Protocol Group B); design: purchased Milipore (Millipore); settings: Protocol Group B; for Percentage inhibition of ligand binding, Adrenergic α2A (0.1 μM) / inhibition at 0.1 µM: 0.1 μM compound; for Percentage inhibition of ligand binding, Adrenergic α2A (0.3 μM) / inhibition at 0.3 µM: 0.3 μM compound; for Ki: estimated Ki; for inhibition at 0.3 µM: read-out: Percentage inhibition of ligand binding, Adrenergic α2A (0.3 μM); for inhibition at 0.1 µM: read-out: Percentage inhibition of ligand binding, Adrenergic α2A (0.1 μM)
T3 sequence (P08913 1-465): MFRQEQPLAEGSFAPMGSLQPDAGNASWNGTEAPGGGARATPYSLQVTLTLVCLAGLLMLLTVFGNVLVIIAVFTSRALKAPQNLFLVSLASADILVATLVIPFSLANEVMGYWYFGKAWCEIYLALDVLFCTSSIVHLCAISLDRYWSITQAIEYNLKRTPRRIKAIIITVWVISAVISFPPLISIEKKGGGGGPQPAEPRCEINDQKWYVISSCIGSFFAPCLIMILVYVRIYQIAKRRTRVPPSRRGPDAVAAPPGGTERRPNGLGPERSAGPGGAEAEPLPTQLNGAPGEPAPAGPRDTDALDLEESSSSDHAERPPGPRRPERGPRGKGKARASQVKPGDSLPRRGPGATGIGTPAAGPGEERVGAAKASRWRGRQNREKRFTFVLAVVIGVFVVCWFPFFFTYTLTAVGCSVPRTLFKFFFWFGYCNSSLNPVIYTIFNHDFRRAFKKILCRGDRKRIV
Procedure, shortened: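 Compounds (1% DMSO vehicle, various concentrations) competed against 2 nM [^3H]MK-912 on recombinant receptor membranes for 60 min at 25° C, Tris-HCl pH 7.4 buffer with Mg2+, Ca2+, BSA. Bound radioligand filtered and counted; 10 μM rauwolscine set nonspecific binding. Values: percent inhibition of specific binding or estimated Ki.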

IC50 [1] | Percentage inhibition of ligand binding, Adrenergic α2B (10 nM) [2] | inhibition at 0.03 µM [2] | Ki [2] | Percentage inhibition of ligand binding, Adrenergic α2A (0.1 μM) [3] | Percentage inhibition of ligand binding, Adrenergic α2A (0.3 μM) [3] | Ki [3] | Percentage inhibition of ligand binding, Adrenergic α2B (30 nM) [2] | Percentage inhibition of ligand binding, Adrenergic α2B (0.1 μM) [2] | inhibition at 0.01 µM [2] | inhibition at 0.3 µM [3] | Percentage inhibition, Adrenergic α1B ([1]; 0.1 μM compound, nor-epinephrine at EC80 (50 nM)) | inhibition at 0.3 µM ([1]; 0.3 μM compound, nor-epinephrine at EC80 (50 nM), read-out: Percentage inhibition, Adrenergic α1B) | Percentage inhibition of ligand binding, Adrenergic α2B, 0.1 nM ([2]; 0.1 nM compound, concentration series, 0.0001 µM) | inhibition at 0.1 µM [2] | inhibition at 0.1 µM [3] | Compound
114 nM | 83% | 96% | 1.5 nM | 56% | 79% | 43.6 nM | – | – | – | – | – | – | – | – | – | Cc1cc(F)c2c(c1)c1c(n2CC(O)c2ccncc2)CCN2CCCC12 (single isomer, unassigned) [137a]
252 nM | 98% | – | 0.81 nM | 89% | 98% | 6.2 nM | 98% | 100% | – | – | – | – | – | – | – | Cc1cc(C)c2c(c1)c1c(n2CC(C)(O)c2cccnc2)CCN2CCCC12 (single isomer, unassigned) [44b]
684 nM | 71% | 87% | 2.2 nM | 47% | 70% | 114 nM | – | – | – | – | – | – | – | 95% | – | Cc1cc(C)c2c(c1)c1c(n2CC(C)(O)c2cccnc2)CCN2CCCC12 (single isomer, unassigned) [44a]
– | – | 97% | – | 96% | – | – | 104% | – | – | – | – | – | – | – | 90% | Cc1ccc2c(c1)c1c(n2CC(O)c2ccncc2)CCN2CCCC12 (single isomer, unassigned) [Compound No. 178d]

Continued, compound first:

Compound | IC50 [1] | Percentage inhibition of ligand binding, Adrenergic α2B (10 nM) [2] | inhibition at 0.03 µM [2] | Ki [2] | Percentage inhibition of ligand binding, Adrenergic α2A (0.1 μM) [3] | Percentage inhibition of ligand binding, Adrenergic α2A (0.3 μM) [3] | Ki [3] | Percentage inhibition of ligand binding, Adrenergic α2B (30 nM) [2] | Percentage inhibition of ligand binding, Adrenergic α2B (0.1 μM) [2] | inhibition at 0.01 µM [2] | inhibition at 0.3 µM [3] | Percentage inhibition, Adrenergic α1B ([1]; 0.1 μM compound, nor-epinephrine at EC80 (50 nM)) | inhibition at 0.3 µM ([1]; 0.3 μM compound, nor-epinephrine at EC80 (50 nM), read-out: Percentage inhibition, Adrenergic α1B) | Percentage inhibition of ligand binding, Adrenergic α2B, 0.1 nM ([2]; 0.1 nM compound, concentration series, 0.0001 µM) | inhibition at 0.1 µM [2] | inhibition at 0.1 µM [3]
CCOC(Cn1c2c(c3cc(C)ccc31)CN(C)CC2)c1ccncc1 (single isomer, unassigned) [43b] | 1090 nM | 71% | – | 2.1 nM | 14% | 28% | 374 nM | 89% | 98% | – | – | – | – | – | – | –
Cc1cc(F)cc2c3c(n(CC(O)c4ccncc4)c12)CCN1CCCC31 (single isomer, unassigned) [136a] | – | – | 95% | 1.5 nM | 69% | – | 14.4 nM | – | – | 91% | 87% | – | – | – | – | –
Cc1ccc2c(c1)c1c(n2CC(O)c2ccncc2F)CCN2CCCC12 (single isomer, unassigned) [14a] | 99 nM | 60% | 81% | 6.5 nM | – | 39% | 305 nM | – | – | – | – | 49% | 76% | −28% | 89% | –
Cc1ccc2c(c1)c1c(n2C[C@@H](OC2CCCC2)c2ccncc2)CCN2CCC[C@H]12 [compound 82, (11cR)-7-[(25)-2-(cyclopentoxy)-2-(4-pyridyl)ethyl]-10-methyl-1,2,3,5,6,11c-hexahydroindolizino[7,8-b]indole] | 382 nM | – | 99% | 1.59 nM | – | – | 4.5 nM | – | – | 98% | 97% | – | – | – | – | 92%
Cc1cc(F)c2c(c1)c1c(n2CC(C)(O)c2cccnc2)CCN2CCCC12 (single isomer, unassigned) [79b] | – | – | 95% | 1.55 nM | – | – | 47.6 nM | – | – | 86% | 74% | – | – | – | 97% | 55%
Cc1cc(F)c2c(c1)c1c(n2CC(C)(O)c2cccnc2)CCN2CCCC12 (centres unmarked) [Compound No. 79a] | – | – | – | 0.77 nM | 81% | 93% | 10.6 nM | 96% | – | – | – | – | – | – | 97% | –
